Our source for the fluorescence change values is PubChem BioAssay AID488818 (NMMLSC, 2010).

The source made the active and inactive calls.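 Rule for the calls: active = fluorescence change from solvent-only control to top dose above 25; inactive = the rest.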

The series relates to S. cerevisiae s288c autofluorescence, flow cytometry MCF, 3 h. Kind of series: compound autofluorescence in parental yeast s288c, SAR follow-up, artefact control for yeast TOR pathway GFP screen, cherry pick 3, multiplex, flow cytometry (AID 488818). The conditions noted are these: at 33.3 µM; stronger effect = higher value.
Take `Cc1nc2c(O)cccc2cc1CO`: the fluorescence change is 0.06 (inactive). Take `Cc1cccc(C)c1Nc1ncnc(N)c1[N+](=O)[O-]`: the fluorescence change was 0.12 (inactive).

As for `NC(=O)c1ccnc2c(O)cccc12`, the fluorescence change was 0.06 (inactive). Regarding `COc1ccccc1-c1cc(C(F)(F)F)nc(S(=O)(=O)CCCC(=O)O)n1`, the fluorescence change was 0.5 (inactive). Take `Cn1cccc1C(=O)Nc1nc(-c2ccccn2)cs1`: the fluorescence change is 0.3 (inactive).

On to `Oc1ccc(F)c2cccnc12`, for which the fluorescence change is 0.06 (inactive).

On to `COc1ccc(OC)c2c(=O)cc(C(=O)O)[nH]c12`, for which the fluorescence change is 0.06 (inactive). Turning to `COCCNc1nc(N)c([N+](=O)[O-])c(Nc2ccc(F)cc2)n1`, the fluorescence change is 0.18 (inactive). Then `COc1cccc2c(Cl)c(CCCl)c(C)nc12`, with 0.24 (inactive); and `CCC(C)Nc1nc(N)c([N+](=O)[O-])c(Nc2cc(OC)ccc2OC)n1` (stereo unspecified), with 0.8 (inactive). On to `Cc1nc(Nc2ccc(Br)cc2Br)c([N+](=O)[O-])c(=O)[nH]1`, for which the fluorescence change was 0 (inactive). As to `COc1ccc(OC)c(Nc2nc(NCCC(C)C)nc(N)c2[N+](=O)[O-])c1`, the fluorescence change was 0.12 (inactive). In the case of `CC(=O)NC(C)c1cc(Cl)c2cccnc2c1O` (stereo unspecified), the fluorescence change was 0.25 (inactive). Then `COCC(C)NC(=O)CCS(=O)(=O)c1nc(-c2ccc(OC)cc2)cc(C(F)(F)F)n1` (stereo unspecified), with 0.12 (inactive). The value for `CCc1sc(C(=O)Nc2nc(-c3ccccn3)cs2)cc1C` was 0.65 (inactive).

On to `COc1ccc(Nc2nc(NN)nc(C)c2[N+](=O)[O-])cc1`, for which the fluorescence change is 0.06 (inactive). In the case of `CCOC(=O)CS(=O)(=O)c1nc(-c2ccccc2)cc(C(F)(F)F)n1`, the fluorescence change is 0.24 (inactive). `O=C(O)c1ccc2cccnc2c1O`: the fluorescence change was 0.12 (inactive). For the compound `CC1=NNC(=O)/C1=C\c1cn(-c2ccccc2)nc1-c1ccc(F)cc1`, the fluorescence change was 0.24 (inactive). The value for `Nc1nc(NCCOCCO)nc(Nc2cccc(F)c2)c1[N+](=O)[O-]` was 0.12 (inactive); that for `CNc1nc(C)c([N+](=O)[O-])c(Nc2ccc(OC)cc2)n1` was 0.06 (inactive).

Consider `CCCOCc1ccc(O)c2ncccc12`, for which the fluorescence change was 0.25 (inactive). With `Cc1ccc(C(=O)Nc2nc(-c3ccccn3)cs2)o1`, the fluorescence change was 0.24 (inactive). Regarding `COc1ccccc1Nc1nc(NCCO)nc(N)c1[N+](=O)[O-]`, the fluorescence change is 0.19 (inactive). In the case of `COc1ccccc1Nc1nc(NCCC(C)C)nc(N)c1[N+](=O)[O-]`, the fluorescence change was 0.07 (inactive). `Oc1ccc(Cl)c2cccnc12`: the fluorescence change is 0.19 (inactive). On to `Oc1c(I)cc(Cl)c2cccnc12`, for which the fluorescence change is 2.85 (inactive). `Oc1c(Br)cc(Br)c2cccnc12`: the fluorescence change is 3.5 (inactive).

As for `N#Cc1c(N)nc(N)nc1Nc1ccc(Br)cc1`, the fluorescence change is 0.12 (inactive). Take `Cc1ccc2c(C)ccc(O)c2n1`: the fluorescence change is 0 (inactive). Turning to `Cc1ccc2c(Cl)cc(Cl)c(O)c2n1`, the fluorescence change was 0.81 (inactive). On to `O=C(O)c1ccc2cccc(O)c2n1`, for which the fluorescence change is 0.18 (inactive).

In the case of `O=C(Nc1nc(-c2ccccn2)cs1)c1ccccc1-n1cnnn1`, the fluorescence change was 0.07 (inactive).

For `Cc1ccc(NN2C(=O)C=C(c3ccccc3)C2=O)cc1`, the fluorescence change was 0.65 (inactive). `Oc1c(Cl)cc(Cl)c2cccnc12`: the fluorescence change was 2.85 (inactive). Regarding `COCCCNc1nc(N)c([N+](=O)[O-])c(Nc2ccccc2OC)n1`, the fluorescence change is 0.06 (inactive). As for `CNc1nc(N)c([N+](=O)[O-])c(Nc2ccccc2OC)n1`, the fluorescence change was 0.08 (inactive). In the case of `CNc1nc(N)c([N+](=O)[O-])c(Nc2cccc(Cl)c2)n1`, the fluorescence change is 0.08 (inactive). In the case of `Nc1ncnc(Nc2cc(Cl)cc(Cl)c2)c1[N+](=O)[O-]`, the fluorescence change is 0.12 (inactive). On to `CCC(C)Nc1nc(N)c([N+](=O)[O-])c(Nc2ccccc2OC)n1` (stereo unspecified), for which the fluorescence change was 0.06 (inactive). Turning to `COc1ccccc1-c1cc(C(F)(F)F)nc(S(=O)(=O)CCCC(=O)NC(C)C)n1`, the fluorescence change was 0.18 (inactive).
